According to article PMC5612938, “A multiple biomarker assay for quality assessment of botanical drugs using a versatile microfluidic chip” (Scientific Reports, 2017):
Marks after values point to notes of the source that are not given here.

Tests used:
[1] = molecular target: T1, Thrombin (from human plasma) (Homo sapiens, UniProt P00734); assay: on-chip affinity screening, binding degree by LC-MS peak area vs protein-free control (thrombin); conditions: for thrombin; [(As − Ac)/As] × 100, sample vs protein-free control, EIC peak area
T1 construct: Thrombin (from human plasma); purchased Sigma-Aldrich; host or cells: human plasma
Source text: In addition to quality assessment, the microfluidic chip can also function as “affinity chromatography” to identify bioactive constituents from botanical drugs in a convenient and efficient manner. After the bioassay, the bound phytochemicals were dissociated from the enzymes and accurately identified by LC-MS. The material used for the chambers in microfluidic system, polydimethylsiloxane (PDMS), is apt to adsorb small molecules nonspecifically, thus a protein-free control was applied to reflect the degree of nonspecific binding of compounds to the chip. Peak areas were obtained from the extracted ion chromatography (EIC) in an ion-trap mass spectrometry (IT-MS), and binding degree (binding degree % = [(As − Ac)/As] × 100, where As and Ac were the peak area in the sample and control, respectively) was calculated to indicate binding specificity. […] All these peaks were unambiguously confirmed via comparisons with chemical standards in terms of retention time and mass spectra (Table 2), and five thrombin inhibitors (danshensu, salvianolic acid B, salvianolic acid C, rosmarinic acid and ginsenoside Rg1) and six ACE inhibitors (astragaloside IV, ononin, formononetin, calycosin, danshensu and salvianolic acid B) were preliminarily identified. […] Enzyme inhibition assays of these hit compounds were then performed to verify the screening results. […] Compounds showing an inhibition rate over 70% were subjected to IC50 measurement.
(§1) MBs (10 mg/mL) were diluted 10 times in PB or Tris-HCl buffer, and 10 μL of the diluted MBs (1 mg/mL) were injected into one channel of the chip using a syringe infusion pump (Harvard Apparatus, USA) and retained by an external magnet. Then, 10 μL of thrombin or ACE solution was added and incubated with MBs for two hours at room temperature to form enzyme-MB complexes. The magnet was manually controlled to move MBs back and forth to enhance the ratio of reaction. Subsequently, MBs were washed twice in assay buffer and magnetically transferred to the other channel through the fluidic bridge, whose opening and closing was controlled by a pneumatic valve. Next, 10 μL of sample solutions of tested drug and 10 μL of enzymatic substrate were sequentially infused to the channel by the pump and incubated with the enzyme. When the enzymatic reaction was finished, the MBs were retained in the channel, and air was injected into the channel from the inlet using a syringe to push all the reacted solution to a 384-well plate. The absorbance of the solution was then monitored at 405 nm (for S-2238) or 340 nm (for FAPGG) using an Infinite F200 spectrophotometer (Tecan, Männedorf, Switzerland). Moreover, after detection, the reaction channel was washed three times by assay buffer to remove unbound constituents. 20 μL of 80% aqueous methanol was then injected and incubated with MBs for one hour to dissociate the bound constituents. The resulting solutions of replicates were combined, evaporated by a centrifugal evaporator, reconstituted in 80% aqueous methanol, centrifuged at 10,000 rpm for 10 min, and analyzed by LC-MS for chemical identification.
An Agilent 1100 HPLC system (Agilent Technologies, Waldbronn, Germany) coupled with an LCQ Deca XP^plus IT-MS (Thermo Finnigan, San Jose, CA, USA) equipped with an electrospray ionization (ESI) interface was employed for structure elucidation of the bounded constituents. […]

[2] = molecular target: T1, Thrombin (from human plasma); assay: on-chip thrombin inhibition assay (S-2238 hydrolysis, absorbance 405 nm); assay type: biochemical; design: key to IC50 (μM) or inhibition rate: /: No obvious inhibition observed; conditions: for thrombin inhibition (in words): at tested concentrations
Method: To enhance the performance of the on-chip assay, experimental parameters such as concentrations of enzymes and substrates, substrate reaction time, and incubation time of samples and enzymes were stepwise optimized. The activity of thrombin was determined by measuring the hydrolysis of chromogenic substrate S-2238 (HD-Phe-Pip-Arg-pNA) at 405 nm. As depicted in Fig. 2a, the absorbance increased rapidly along with the elevated concentrations of thrombin, while it reached a plateau at 0.5 U/mL. […] Moreover, it was clear from Fig. 2d that the maximum inhibitory effect of QSYQ sample (I1 of Table 1 in this assay) on thrombin was observed after 60 min of incubation. Therefore, to achieve favorable response and prevent signal saturation, optimal assay conditions for thrombin were determined to be 0.2 U/mL, 0.31 mM, 30 min and 60 min for the final concentrations of thrombin and S-2238, substrate reaction time and incubation time, respectively. […] In this assay, the concentrations of ACE and FAPGG were finally set at 0.027 U/mL and 0.72 mM, where the background value was lower and the reaction time was relatively shorter (30 min).
The optimized protocol was first applied to assess the quality of 11 batches of QSYQ intermediates (Table 1). Enzyme inhibition (in percentages) was employed as an indicator of drug quality and calculated according to the following equations: thrombin inhibition (%) = [1 − (AQSYQ/Ablank)] × 100; ACE inhibition (%) = [1 − (ΔAQSYQ/ΔAblank)] × 100; where AQSYQ and Ablank were the absorbance of the test sample and the blank sample after the enzymatic reaction (the background value was subtracted), and ΔAQSYQ and ΔAblank were the absorbance decrease between 0 min and 30 min of the samples. A scatter plot was generated to display the inhibition result of thrombin and ACE simultaneously. […] Moreover, artificial abnormal samples I6, I7 and I8, each with one abnormal (pre-extracted) herb, presented relatively lower inhibitions compared with I1.
Thrombin (from human plasma), ACE (from rabbit lung), FAPGG and captopril were purchased from Sigma-Aldrich (St. Louis, USA). S-2238 was obtained from Aglyco (Beijing, China). AEBSF-HCl was purchased from Selleckchem (Houston, USA). Trizma base (Tris) was obtained from Sangon Biotech (Shanghai, China) and dimethyl sulfoxide (DMSO) from J&K Scientific (Beijing, China). All other chemicals were purchased from Sinopharm Chemical (Shanghai, China) unless otherwise indicated. 0.2 M Phosphate buffer (PB, pH 6.5), and 50 mM Tris-HCl buffer (200 mM NaCl, pH 8.3) were prepared as assay buffers for thrombin and ACE, respectively.
as §1, with “20 μL of 80% aqueous methanol was then injected and incubated with MBs for one hour to dissociate the bound constituents. The resulting solutions of replicates were combined, evaporated by a centrifugal evaporator, reconstituted in 80% aqueous methanol, centrifuged at 10,000 rpm for 10 min, and analyzed by LC-MS for chemical identification.” left out

Compound	Binding degree (%) [1]	IC50 (μM) or inhibition rate ([2]; for thrombin, symbol / = no obvious inhibition)	thrombin inhibition (in words) [2]	IC50 ([2]; for thrombin) [µM]
CC(C)=CCC[C@](C)(O[C@@H]1O[C@H](CO)[C@@H](O)[C@H](O)[C@H]1O)[C@H]1CC[C@]2(C)[C@@H]1[C@H](O)C[C@@H]1[C@@]3(C)CC[C@H](O)C(C)(C)[C@@H]3[C@@H](O[C@@H]3O[C@H](CO)[C@@H](O)[C@H](O)[C@H]3O)C[C@]12C [Ginsenoside Rg1]	20.6^c %	/^g	–	–
O=C(/C=C/c1ccc(O)c(O)c1)O[C@H](Cc1ccc(O)c(O)c1)C(=O)O [Rosmarinic acid]	67.4^c %	–	good thrombin inhibitions	92
O=C(/C=C/c1ccc(O)c2oc(-c3ccc(O)c(O)c3)cc12)O[C@H](Cc1ccc(O)c(O)c1)C(=O)O [Salvianolic acid C]	100^c %	–	good thrombin inhibitions	180
